The source made the active and inactive calls. The rule behind the calls is not given here.
organism: Homo sapiens; assay: Binding affinity to F1F0-ATP synthase subunit C (unknown origin) measured by cellular thermal shift assay (CETSA); conditions: not given

SMILES	Activity
O=C(NC1CCCCC1)NC1CCCCC1	Active

tested on: AC16 [Human hybrid]; assay: Inhibition of PTPC in human AC16 cells at 1 uM measured by calcein-cobalt assay relative to control; type: cell-based; conditions: not given

SMILES	inhibition
O=C(NC1CCCCC1)NC1CCCCC1	28%
N#Cc1ccc(NC(=O)Nc2ccc(C#N)cc2)cc1	25.4%
COc1ccc(NC(=O)Nc2ccccc2)cc1	4.6%
CC(C)(C)NC(=O)NC1CCCCC1	43.2%
C(=NC1CCCCC1)=NC1CCCCC1	Active
O=C(Nc1ccccc1)Nc1ccccc1	28.1%
O=C(NC1CC1)NC1CC1	3.87%
CCOC(=O)c1ccc(NC(=O)Nc2ccc(C(=O)OCC)cc2)cc1	9.75%
O=C(NC1CCCC1)NC1CCCC1	16.4%

tested on: AC16 [Human hybrid]; assay: Activation of PTPC in human AC16 cells at 1 uM measured by calcein-cobalt assay relative to control; type: cell-based; conditions: not given

SMILES	inhibition [%]
S=C(NCc1ccccc1)NCc1ccccc1	37.2
S=C(NC1CCCCC1)NC1CCCCC1	32.4
S=C(Nc1ccccc1)NC1CCCCC1	3
O=C(NCc1ccccc1)NCc1ccccc1	30.4

same assay, conditions: filed as activator

SMILES	inhibition [%]
COc1ccc(NC(=O)Nc2ccc(OC)cc2)cc1	53.6
CC(C)(C)OC(=O)NC1CCCCC1	42.5

From ChEMBL document CHEMBL5113424, “Identification of small-molecule urea derivatives as PTPC modulators targeting the c subunit of F1/Fo-ATP synthase” (Bioorg Med Chem Lett, 2022)
